Measured values published in patent US20260144820A1, “ACTIVATION OF RESIDENT MEMORY T CELLS FOR CANCER IMMUNOTHERAPY” (priority 2015, published 2026).

Key:
[1] = system: VSV-Ova specific TRM; set-up: species or system mice; details: mouse, in vivo
[2] = system: virus-specific TRM within skin tumors; set-up: species or system mice; details: mouse, in vivo

With SIINFEKL the “reactivation of virus-specific TRM within skin tumors” value [1] was “can become reactivated” and the “recruitment of CD8 T cells and NK cells to tumors” value [2] was “recruit CD8 T cells and NK cells to the tumors”.
